According to US6723702B2, “Use of relaxin treat diseases related to vasoconstriction” (RAS Medical, Inc., priority 2000, dated 2004):

How the values were obtained:
intact, female rats = test: Chronic infusion of purified porcine RLX or rhRLX: MAP and renal function in conscious rats; format: in vivo, rat; conditions: chronic infusion 4 μg/hour
Source text: Long-Evans female rats aged 10-14 weeks were purchased from Harlan Sprague-Dawley (Frederick, Md.). They were fed PROLAB RMH 2000 diet containing 0.48% sodium (PME Feeds Inc., St. Louis, Mo.) and provided water ad libitum. To prepare the rats for experimental procedures, they were trained for several hours in a Plexiglas restraining cage (Braintree Scientific Co., Braintree, Mass.) on at least five different occasions before surgical intervention. These cages afforded sufficient space for grooming of the face and front paws while preventing the rat from turning around. Thus, accurate timed-urine collections and blood samplings were made possible from the chronically implanted bladder and vascular catheters, respectively. Rats failing to habituate to the cage were eliminated from the study (<1%). All animal procedures were approved by the Institutional Animal Care and Use Committee of the Magee-Womens Research Institute.
The details of the surgical procedures have been previously described. See, e.g., Conrad (1984) Kidney Int. 26:24-29; and Danielson and Conrad (1995) J. Clin. Invest. 96:482-490. […] The bladder catheter, a silastic-covered stainless steel cannula, was sewn into the urinary bladder with a purse-string suture and exteriorized through the ventral abdominal wall. This catheter was then plugged allowing the animal to urinate through the urethra while in her home cage. In the ovariectomized and sham ovariectomized animals, the ovaries were first ligated and then excised, or briefly manipulated, respectively, via a small incision made in the lateral abdominal wall immediately after the insertion of vascular and bladder catheters. All surgeries were conducted using aseptic technique. At least a 7-day recovery period was allowed before experimentation.
For chronic infusion of relaxin, an osmotic minipump was inserted subcutaneously (s.c.) in the back of the animal under ether anesthesia. After shaving and cleaning the skin with alcohol and betadine, a small incision was made and the minipump containing either recombinant human relaxin (rhRLX), purified porcine relaxin (RLX), or vehicle was inserted. Then the incision was closed with surgical staples. The model 2001 and 2ML1 osmotic minipumps (Alza Co., Palo Alto, Calif.) were used for the purified porcine RLX and rhRLX, respectively.
At the beginning of each experiment, immediately after opening the arterial catheter and before infusion of fluids, 100 μl of blood was collected into a heparinized tube. […] The hematocrit was also routinely determined on these midpoint blood samples. […] MAP, GFR, ERPF, and ERVR were assessed on days 2 and 5 of the infusion, and 5-12 days after depletion of the 7-day minipump. […] Circulating relaxin concentrations of 20-40 ng/mL have been measured in rats of 12-14 gestational days. […]

human cardiac cells = test: Cellular proliferation by 3H-thymidine incorporation in cardiac cells; format: cell-based
Method: To determine if the effects of relaxin observed in the rat were also seen in human cells, total RNA from cardiac cells was extracted following treatment of cells with 1, 10, and 100 ng/ml relaxin for 24 hours. Human cardiac cells were cultured for 24 hours either without or with relaxin (1-100 ng/ml). Untreated cells were incubated for the same 24 hour period under hypoxic (2% O2) conditions. Using 150 ng of total RNA for human VEGF and bFGF transcripts and 10 ng of total RNA for GAPDH transcripts, primer/probe sets were used to generate RT-PCR products for human VEGF 165aa and 121aa isoforns and human bFGF. Data were analyzed using Sequence Detector v1.6.3 software (Applied Biosystems/PE). VEGF and bFGF expression levels are graphed relative to GAPDH transcript levels. Data are shown as means±SEM, where n=3 per treatment group; *p<0.05; Student-Newman-Keuls test. […] Absolute baseline levels of bFGF mRNA transcripts expressed by these cells were approximately 2-fold greater than those of either the VEGF121 or the VEGF165 isoforms. Total RNA from cells incubated under hypoxic conditions was analyzed as a positive control for the stimulation of VEGF isoforms. […] Relaxin had no effect on cellular proliferation, as assessed by ^3H-thymidine incorporation, on cellular morphology, or on desmin or vimentin staining patterns.

[1] = days 2 and 5, rhRLX significant only at day 5

In the case of “Porcine RLX: lyophilized, purified porcine relaxin (Sherwood and O'Byrne 1974), dissolved in Ringer's solution”, the “effect on MAP” value (intact, female rats; days 2 and 5 (FIG. 1A)) was “did not significantly change”, the “effect on ERPF” value (intact, female rats; [1]) was “marked increase” and the “effect on ERVR” value (intact, female rats; [1]) was “reciprocal reduction”. The “effect on GFR” value (intact, female rats; [1]) was “marked increase”.

In the case of “rhRLX: recombinant human relaxin, identical in amino acid sequence to the product of the human H2 gene; A chain of 24, B chain of 29 amino acids”, the “cellular proliferation, 3H-thymidine incorporation” value (human cardiac cells) was “no effect”.
